Experiments:
Experiment in all cases: viability relative to DMSO control (fraction); higher = less drug effect (more viable cells)
Conditions in all cases: 48 h
[1] = compound: C#CCC(Cc1cnc2nc(N)nc(N)c2n1)c1ccc(C(=O)N[C@@H](CCC(=O)O)C(=O)O)cc1 [Pralatrexate]
Method in brief: (§1)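 Viability is given as CellTiter-Glo luminescence relative to the median of 16 inner DMSO wells. Fresh or cryopreserved primary mononuclear tumour cells from blood, bone marrow (both Ficoll-isolated) or processed lymph node were plated at 4 × 10^4 cells per well in 384-well plates against five pre-plated compound concentrations, one well each. Incubation lasted 48 h at 37 °C and 5% CO2 in RPMI-1640 with penicillin/streptomycin, L-glutamine and human serum.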

[2] = compound: CC#CC(=O)N1CC[C@@H](n2c(=O)n(-c3ccc(Oc4ccccc4)cc3)c3c(N)ncnc32)C1 [ONO-4059]
Method in brief: as §1

[3] = compound: CC(C)(C)OC(=O)Nc1ccc(-c2cc(C(=O)NCCCCCCC(=O)NO)no2)cc1
Method in brief: as §1

[4] = compound: CCCS(=O)(=O)Nc1ccc(F)c(C(=O)c2c[nH]c3ncc(-c4ccc(Cl)cc4)cc23)c1F [Vemurafenib]
Method in brief: as §1

[5] = compound: CCOc1cc(C(=O)N2CCC(N3CCN(C)CC3)CC2)ccc1Nc1ncc2c(n1)N(C1CCCC1)c1ccccc1C(=O)N2C [ERK5-IN-1]
Method in brief: as §1

[6] = compound: CC[C@@H]1C(=O)N(C)c2cnc(Nc3ccc(C(=O)N[C@H]4CC[C@H](N5CCN(CC6CC6)CC5)CC4)cc3OC)nc2N1C(C)C [BI6727]
Method in brief: as §1

[7] = compound: CC[C@]1(O)C[C@H]2CN(CCc3c([nH]c4ccccc34)[C@@](C(=O)OC)(c3cc4c(cc3OC)N(C=O)[C@H]3[C@@](O)(C(=O)OC)[C@H](OC(C)=O)[C@]5(CC)C=CCN6CC[C@]43[C@@H]65)C2)C1 [Vincristine]
Method in brief: as §1

[8] = compound: CN(C)C(=O)c1cc2cnc(Nc3ccc(N4CCNCC4)cn3)nc2n1C1CCCC1 [Ribociclib]
Method in brief: as §1

[9] = compound: COC1=CC(c2cc3ccccc3[nH]2)=N/C1=C\c1[nH]c(C)cc1C [Obatoclax mesylate]
Method in brief: as §1

[10] = compound: COc1c(Cl)cc2c([nH]c3cnccc32)c1NC(=O)c1cccnc1C [MLN-120B]
Method in brief: as §1

[11] = compound: Cc1[nH]c2ccccc2c1CCNCc1ccc(/C=C/C(=O)NO)cc1 [Panobinostat]
Method in brief: as §1

[12] = compound: NC(=O)Nc1cc(-c2cccc(F)c2)sc1C(=O)N[C@H]1CCCNC1 [AZD7762]
Method in brief: as §1

[13] = compound: Nc1nc(Cl)nc2c1ncn2[C@H]1C[C@H](O)[C@@H](CO)O1 [Cladribine]
Method in brief: as §1

[14] = compound: O=C(CCCCCCC(=O)Nc1ccccc1)NO [Vorinostat]
Method in brief: as §1

[15] = compound: O=C(NCC1(c2nc(-c3ccccc3)cs2)CCOCC1)c1cccc(-c2noc(C(F)(F)F)n2)c1 [TMP269]
Method in brief: as §1

[16] = compound: OC[C@H]1O[C@@H](n2cnc3c2N=CNC[C@H]3O)C[C@@H]1O [Pentostatin]
Method in brief: as §1

[17] = compound: Cc1ccc(NC(=O)c2ccc(CN3CCN(C)CC3)cc2)cc1Nc1nccc(-c2cccnc2)n1 [Imatinib]
Method in brief: as §1

[18] = compound: Cc1cc(Nc2cc(N3CCN(C)CC3)nc(Sc3ccc(NC(=O)C4CC4)cc3)n2)n[nH]1 [Tozasertib]
Method in brief: as §1

Test System: primary T-NHL patient cells (S058)
- viability ([1]; 0.024 µM): 1.15
- viability ([1]; 0.12 µM): 0.861
- viability ([1]; 0.6 µM): 0.833
- viability ([1]; 3 µM): 0.902
- viability ([1]; 15 µM): 0.833
- viability ([2]; 0.0016 µM): 1.06
- viability ([2]; 0.008 µM): 1.25
- viability ([2]; 0.04 µM): 1.03
- viability ([2]; 0.2 µM): 1.16
- viability ([2]; 1 µM): 1.07
- viability ([3]; 0.024 µM): 0.982
- viability ([3]; 0.12 µM): 0.854
- viability ([3]; 0.6 µM): 0.611
- viability ([3]; 3 µM): 0.355
- viability ([3]; 15 µM): 0.258
- viability ([4]; 0.024 µM): 0.878
- viability ([4]; 0.12 µM): 0.957
- viability ([4]; 0.6 µM): 0.911
- viability ([4]; 3 µM): 0.982
- viability ([4]; 15 µM): 0.96
- viability ([5]; 0.024 µM): 1.12
- viability ([5]; 0.12 µM): 1.15
- viability ([5]; 0.6 µM): 0.851
- viability ([5]; 3 µM): 0.59
- viability ([5]; 15 µM): 0.403
- viability ([6]; 0.024 µM): 0.939
- viability ([6]; 0.12 µM): 0.885
- viability ([6]; 0.6 µM): 0.757
- viability ([6]; 3 µM): 0.506
- viability ([6]; 15 µM): 0.3
- viability ([7]; 0.016 µM): 0.646
- viability ([7]; 0.08 µM): 0.417
- viability ([7]; 0.4 µM): 0.364
- viability ([7]; 2 µM): 0.302
- viability ([7]; 10 µM): 0.246
- viability ([8]; 0.024 µM): 1.05
- viability ([8]; 0.12 µM): 1.14
- viability ([8]; 0.6 µM): 1.07
- viability ([8]; 3 µM): 1.01
- viability ([8]; 15 µM): 1.06
- viability ([9]; 0.024 µM): 0.985
- viability ([9]; 0.12 µM): 0.916
- viability ([9]; 0.6 µM): 0.783
- viability ([9]; 3 µM): 0.533
- viability ([9]; 15 µM): 0.227
- viability ([10]; 0.024 µM): 0.984
- viability ([10]; 0.12 µM): 1.15
- viability ([10]; 0.6 µM): 1.05
- viability ([10]; 3 µM): 1.16
- viability ([10]; 15 µM): 0.908
- viability ([11]; 0.00064 µM): 1.24
- viability ([11]; 0.0032 µM): 0.886
- viability ([11]; 0.016 µM): 0.292
- viability ([11]; 0.08 µM): 0.302
- viability ([11]; 0.4 µM): 0.243
- viability ([12]; 0.024 µM): 1.05
- viability ([12]; 0.12 µM): 1.16
- viability ([12]; 0.6 µM): 0.936
- viability ([12]; 3 µM): 1.02
- viability ([12]; 15 µM): 0.719
- viability ([13]; 0.024 µM): 0.857
- viability ([13]; 0.12 µM): 0.441
- viability ([13]; 0.6 µM): 0.147
- viability ([13]; 3 µM): 0.112
- viability ([13]; 15 µM): 0.0704
- viability ([14]; 0.016 µM): 1.16
- viability ([14]; 0.08 µM): 0.894
- viability ([14]; 0.4 µM): 0.789
- viability ([14]; 2 µM): 0.381
- viability ([14]; 10 µM): 0.274
- viability ([15]; 0.024 µM): 1.05
- viability ([15]; 0.12 µM): 0.994
- viability ([15]; 0.6 µM): 1.01
- viability ([15]; 3 µM): 0.892
- viability ([15]; 15 µM): 0.836
- viability ([16]; 0.03 µM): 1.1
- viability ([16]; 0.15 µM): 1.06
- viability ([16]; 0.75 µM): 0.988
- viability ([16]; 3.75 µM): 0.816
- viability ([16]; 18.76 µM): 0.858

Test System: primary DLBCL patient cells (S049)
- viability ([1]; 0.024 µM): 1.02
- viability ([1]; 0.12 µM): 0.803
- viability ([1]; 0.6 µM): 0.897
- viability ([1]; 3 µM): 0.899
- viability ([1]; 15 µM): 0.928
- viability ([2]; 0.0016 µM): 0.823
- viability ([2]; 0.008 µM): 0.761
- viability ([2]; 0.04 µM): 0.687
- viability ([2]; 0.2 µM): 0.716
- viability ([2]; 1 µM): 0.649
- viability ([3]; 0.024 µM): 0.925
- viability ([3]; 0.12 µM): 0.678
- viability ([3]; 0.6 µM): 0.327
- viability ([3]; 3 µM): 0.0379
- viability ([3]; 15 µM): 0.0222
- viability ([4]; 0.024 µM): 0.847
- viability ([4]; 0.12 µM): 0.935
- viability ([4]; 0.6 µM): 0.934
- viability ([4]; 3 µM): 0.957
- viability ([4]; 15 µM): 0.911
- viability ([5]; 0.024 µM): 1.04
- viability ([5]; 0.12 µM): 1.04
- viability ([5]; 0.6 µM): 0.717
- viability ([5]; 3 µM): 0.177
- viability ([5]; 15 µM): 0.045
- viability ([6]; 0.024 µM): 0.902
- viability ([6]; 0.12 µM): 0.898
- viability ([6]; 0.6 µM): 0.711
- viability ([6]; 3 µM): 0.228
- viability ([6]; 15 µM): 0.0414
- viability ([7]; 0.016 µM): 0.123
- viability ([7]; 0.08 µM): 0.101
- viability ([7]; 0.4 µM): 0.104
- viability ([7]; 2 µM): 0.132
- viability ([7]; 10 µM): 0.121
- viability ([8]; 0.024 µM): 1
- viability ([8]; 0.12 µM): 1.02
- viability ([8]; 0.6 µM): 0.976
- viability ([8]; 3 µM): 0.752
- viability ([8]; 15 µM): 0.29
- viability ([9]; 0.024 µM): 0.827
- viability ([9]; 0.12 µM): 0.773
- viability ([9]; 0.6 µM): 0.538
- viability ([9]; 3 µM): 0.343
- viability ([9]; 15 µM): 0.0387
- viability ([10]; 0.024 µM): 0.954
- viability ([10]; 0.12 µM): 0.902
- viability ([10]; 0.6 µM): 0.946
- viability ([10]; 3 µM): 0.868
- viability ([10]; 15 µM): 0.741
- viability ([11]; 0.00064 µM): 1.09
- viability ([11]; 0.0032 µM): 0.896
- viability ([11]; 0.016 µM): 0.0566
- viability ([11]; 0.08 µM): 0.0257
- viability ([11]; 0.4 µM): 0.0265
- viability ([12]; 0.024 µM): 0.697
- viability ([12]; 0.12 µM): 0.337
- viability ([12]; 0.6 µM): 0.277
- viability ([12]; 3 µM): 0.344
- viability ([12]; 15 µM): 0.163
- viability ([13]; 0.024 µM): 0.918
- viability ([13]; 0.12 µM): 0.853
- viability ([13]; 0.6 µM): 0.512
- viability ([13]; 3 µM): 0.399
- viability ([13]; 15 µM): 0.305
- viability ([14]; 0.016 µM): 0.996
- viability ([14]; 0.08 µM): 0.899
- viability ([14]; 0.4 µM): 0.797
- viability ([14]; 2 µM): 0.0724
- viability ([14]; 10 µM): 0.0247
- viability ([15]; 0.024 µM): 1.03
- viability ([15]; 0.12 µM): 1.08
- viability ([15]; 0.6 µM): 1.1
- viability ([15]; 3 µM): 1.01
- viability ([15]; 15 µM): 0.961
- viability ([16]; 0.03 µM): 1.09
- viability ([16]; 0.15 µM): 0.953
- viability ([16]; 0.75 µM): 1.02
- viability ([16]; 3.75 µM): 0.907
- viability ([16]; 18.76 µM): 0.839

Test System: primary AML patient cells (S044)
- viability ([17]; 0.08 µM): 1.06
- viability ([17]; 0.4 µM): 1
- viability ([17]; 2 µM): 0.924
- viability ([17]; 10 µM): 0.823

Test System: primary AML patient cells (S027)
- viability ([2]; 0.0016 µM): 0.958
- viability ([2]; 0.008 µM): 1.06
- viability ([2]; 0.04 µM): 0.945
- viability ([2]; 0.2 µM): 0.943
- viability ([2]; 1 µM): 1.01
- viability ([8]; 0.024 µM): 1.02
- viability ([8]; 0.12 µM): 1.03
- viability ([8]; 0.6 µM): 1.03
- viability ([8]; 3 µM): 0.938
- viability ([8]; 15 µM): 0.832
- viability ([18]; 0.024 µM): 1.01
- viability ([18]; 0.12 µM): 0.906
- viability ([18]; 0.6 µM): 0.93
- viability ([18]; 3 µM): 0.881
- viability ([17]; 0.016 µM): 1.17
- viability ([17]; 0.08 µM): 1.17
- viability ([17]; 0.4 µM): 1.18
- viability ([17]; 10 µM): 1.05

Test System: primary AML patient cells (S054)
- viability ([17]; 0.016 µM): 1.05
- viability ([17]; 0.08 µM): 1.05
- viability ([17]; 0.4 µM): 1
- viability ([17]; 2 µM): 0.962
- viability ([17]; 10 µM): 0.807

Reference: the supplement of paper PMC10733146
